Reference: US12077503B2, “Substituted cyclic amides and their use as herbicides” (FMC CORPORATION, priority 2015, dated 2024)

Key:
Format in all cases: in vivo
[1] = test system: ivy-leaved morning glory (Ipomoea hederacea); experiment: Test G Post-Emergence Protocol
Procedure: (§1) Seeds of corn (Zea mays), giant foxtail (Setaria faberi), barnyardgrass (Echinochloa crus-galli), ivy-leaved morning glory (Ipomoea hederacea), redroot pigweed (Amaranthus retroflexus) and velvetleaf (Abutilon theophrasti) were sown in standard soil in pots. After cultivation for 8 days under controlled conditions in a glasshouse (at 24/16° C., day/night; 14 hours light; 65% humidity), the plants were sprayed with an aqueous spray solution derived from the formulation of the technical active ingredient in acetone/water (50:50) solution containing 0.5% Tween 20 (polyoxyethylene sorbitan monolaurate, CAS RN 9005-64-5) to give a final dose of 15.625, 62.5 or 250 g/ha of test compound.
(§2) The test plants were then grown on under controlled conditions in a glasshouse (at 24/16° C., day/night; 14 hours light; 65% humidity) and watered twice daily. After 13 days the test was evaluated (100=total damage to plant; 0=no damage to plant). A dash (-) means no test result.

[2] = test system: redroot pigweed (Amaranthus retroflexus); experiment: Test G Post-Emergence Protocol
Procedure: as §1, §2

[3] = test system: barnyardgrass (Echinochloa crus-galli); experiment: Test G Post-Emergence Protocol
Procedure: as §1, §2

[4] = test system: velvetleaf (Abutilon theophrasti); experiment: Test G Post-Emergence Protocol
Procedure: as §1, §2

[5] = test system: giant foxtail (Setaria faberi); experiment: Test G Post-Emergence Protocol
Procedure: as §1, §2

corn (Zea mays) [6] = experiment: Test G Post-Emergence Protocol
Procedure: as §1, §2

[7] = test system: ivy-leaved morning glory (Ipomoea hederacea); experiment: Test G Pre-Emergence Protocol; settings: evaluated after 13 days
Procedure: as §1, with “one day” for “8 days”
as §2

[8] = test system: redroot pigweed (Amaranthus retroflexus); experiment: Test G Pre-Emergence Protocol; settings: evaluated after 13 days
Procedure: as §1, with “one day” for “8 days”
as §2

[9] = test system: barnyardgrass (Echinochloa crus-galli); experiment: Test G Pre-Emergence Protocol; settings: evaluated after 13 days
Procedure: as §1, with “one day” for “8 days”
as §2

[10] = test system: velvetleaf (Abutilon theophrasti); experiment: Test G Pre-Emergence Protocol; settings: evaluated after 13 days
Procedure: as §1, with “one day” for “8 days”
as §2

[11] = test system: giant foxtail (Setaria faberi); experiment: Test G Pre-Emergence Protocol; settings: evaluated after 13 days
Procedure: as §1, with “one day” for “8 days”
as §2

corn (Zea mays) [12] = experiment: Test G Pre-Emergence Protocol; settings: evaluated after 13 days
Procedure: as §1, with “one day” for “8 days”
as §2

[13] = 15.625 g ai/ha, evaluated after 13 days (100=total damage to plant; 0=no damage to plant)
[14] = 62.5 g ai/ha, evaluated after 13 days
[15] = 250 g ai/ha, evaluated after 13 days
[16] = 62.5 g ai/ha, 100=total damage to plant, 0=no damage to plant

SMILES: CCOc1cc(F)cc(C2CN(C)C(=O)C2C(=O)Nc2cccc(F)c2F)c1 (centres unmarked) [Compound 1695]
- pest or weed control at 15.625 g/ha ([1]; Ipomoea, post-emergence, 312 h, 15.625 g ai/ha, evaluated after 13 days (100=total damage to plant; 0=no damage to plant), read-out: Morningglory, Ivy-leaved damage rating): 10%
- pest or weed control at 62.5 g/ha ([1]; Ipomoea, post-emergence, 312 h, 62.5 g ai/ha, evaluated after 13 days, 100=total damage to plant, 0=no damage to plant, read-out: Morningglory, Ivy-leaved damage rating): 20%
- pest or weed control at 15.625 g/ha ([2]; Amaranthus retroflexus, post-emergence, 312 h, 15.625 g ai/ha, evaluated after 13 days (100=total damage to plant; 0=no damage to plant), read-out: Pigweed, Redroot damage rating): 10%
- pest or weed control at 62.5 g/ha ([2]; Amaranthus retroflexus, post-emergence, 312 h, 62.5 g ai/ha, evaluated after 13 days, 100=total damage to plant, 0=no damage to plant, read-out: Pigweed, Redroot damage rating): 10%
- pest or weed control at 15.625 g/ha ([3]; Echinochloa crus-galli, post-emergence, 312 h, 15.625 g ai/ha, evaluated after 13 days (100=total damage to plant; 0=no damage to plant), read-out: Barnyardgrass damage rating): 80%
- pest or weed control at 62.5 g/ha ([3]; Echinochloa crus-galli, post-emergence, 312 h, 62.5 g ai/ha, evaluated after 13 days, 100=total damage to plant, 0=no damage to plant, read-out: Barnyardgrass damage rating): 80%
- pest or weed control at 15.625 g/ha ([4]; Abutilon theophrasti, post-emergence, 312 h, 15.625 g ai/ha, evaluated after 13 days (100=total damage to plant; 0=no damage to plant), read-out: Velvetleaf damage rating): 0%
- pest or weed control at 62.5 g/ha ([4]; Abutilon theophrasti, post-emergence, 312 h, 62.5 g ai/ha, evaluated after 13 days, 100=total damage to plant, 0=no damage to plant, read-out: Velvetleaf damage rating): 10%
- pest or weed control at 15.625 g/ha ([5]; Setaria faberi, post-emergence, 312 h, 15.625 g ai/ha, evaluated after 13 days (100=total damage to plant; 0=no damage to plant), read-out: Foxtail, Giant damage rating): 80%
- pest or weed control at 62.5 g/ha ([5]; Setaria faberi, post-emergence, 312 h, 62.5 g ai/ha, evaluated after 13 days, 100=total damage to plant, 0=no damage to plant, read-out: Foxtail, Giant damage rating): 80%
- plant injury at 15.625 g/ha (corn (Zea mays) [6]; Zea mays, post-emergence, 312 h, 15.625 g ai/ha, evaluated after 13 days (100=total damage to plant; 0=no damage to plant), read-out: Corn damage rating): 30%
- plant injury at 62.5 g/ha (corn (Zea mays) [6]; Zea mays, post-emergence, 312 h, 62.5 g ai/ha, evaluated after 13 days, 100=total damage to plant, 0=no damage to plant, read-out: Corn damage rating): 70%
- pest or weed control at 15.625 g/ha ([7]; Ipomoea, pre-emergence, 312 h, 15.625 g ai/ha, read-out: Morningglory, Ivy-leaved damage rating (100=total damage to plant; 0=no damage to plant)): 0%
- pest or weed control at 15.625 g/ha ([8]; Amaranthus retroflexus, pre-emergence, 312 h, 15.625 g ai/ha, read-out: Pigweed, Redroot damage rating (100=total damage to plant; 0=no damage to plant)): 0%
- pest or weed control at 62.5 g/ha ([8]; Amaranthus retroflexus, pre-emergence, 312 h, 62.5 g ai/ha, 100=total damage to plant, 0=no damage to plant, read-out: Pigweed, Redroot damage rating): 0%
- pest or weed control at 15.625 g/ha ([9]; Echinochloa crus-galli, pre-emergence, 312 h, 15.625 g ai/ha, read-out: Barnyardgrass damage rating (100=total damage to plant; 0=no damage to plant)): 50%
- pest or weed control at 62.5 g/ha ([9]; Echinochloa crus-galli, pre-emergence, 312 h, 62.5 g ai/ha, 100=total damage to plant, 0=no damage to plant, read-out: Barnyardgrass damage rating): 90%
- pest or weed control at 15.625 g/ha ([10]; Abutilon theophrasti, pre-emergence, 312 h, 15.625 g ai/ha, read-out: Velvetleaf damage rating (100=total damage to plant; 0=no damage to plant)): 0%
- pest or weed control at 62.5 g/ha ([10]; Abutilon theophrasti, pre-emergence, 312 h, 62.5 g ai/ha, 100=total damage to plant, 0=no damage to plant, read-out: Velvetleaf damage rating): 0%
- pest or weed control at 15.625 g/ha ([11]; Setaria faberi, pre-emergence, 312 h, 15.625 g ai/ha, read-out: Foxtail, Giant damage rating (100=total damage to plant; 0=no damage to plant)): 70%
- pest or weed control at 62.5 g/ha ([11]; Setaria faberi, pre-emergence, 312 h, 62.5 g ai/ha, 100=total damage to plant, 0=no damage to plant, read-out: Foxtail, Giant damage rating): 90%
- plant injury at 15.625 g/ha (corn (Zea mays) [12]; Zea mays, pre-emergence, 312 h, 15.625 g ai/ha, read-out: Corn damage rating (100=total damage to plant; 0=no damage to plant)): 10%
- plant injury at 62.5 g/ha (corn (Zea mays) [12]; Zea mays, pre-emergence, 312 h, 62.5 g ai/ha, 100=total damage to plant, 0=no damage to plant, read-out: Corn damage rating): 40%

SMILES: Cc1nc(Cl)ccc1[C@@H]1CN(C)C(=O)[C@H]1C(=O)Nc1cccc(F)c1F [Compound 1463]
- Morningglory, Ivy-leaved damage rating [1, 13]: 0
- Morningglory, Ivy-leaved damage rating (100=total damage to plant; 0=no damage to plant) [1, 14]: 0
- damage to plant, Morningglory, Ivy-leaved (100=total damage to plant; 0=no damage to plant) [1, 15]: 20
- Pigweed, Redroot damage rating [2, 13]: 0
- Pigweed, Redroot damage rating (100=total damage to plant; 0=no damage to plant) [2, 14]: 10
- damage to plant, Pigweed, Redroot (100=total damage to plant; 0=no damage to plant) [2, 15]: 10
- Barnyardgrass damage rating [3, 13]: 0
- Barnyardgrass damage rating (100=total damage to plant; 0=no damage to plant) [3, 14]: 0
- damage to plant, Barnyardgrass (100=total damage to plant; 0=no damage to plant) [3, 15]: 30
- Velvetleaf damage rating [4, 13]: 0
- Velvetleaf damage rating (100=total damage to plant; 0=no damage to plant) [4, 14]: 10
- damage to plant, Velvetleaf (100=total damage to plant; 0=no damage to plant) [4, 15]: 20
- Foxtail, Giant damage rating [5, 13]: 0
- Foxtail, Giant damage rating (100=total damage to plant; 0=no damage to plant) [5, 14]: 0
- damage to plant, Foxtail, Giant (100=total damage to plant; 0=no damage to plant) [5, 15]: 70
- Corn damage rating (corn (Zea mays) [6]; [13]): 0
- Corn damage rating (100=total damage to plant; 0=no damage to plant) (corn (Zea mays) [6]; [14]): 10
- damage to plant, Corn (100=total damage to plant; 0=no damage to plant) (corn (Zea mays) [6]; [15]): 10
- Morning-glory, Ivy-leaved damage rating (100=total damage to plant; 0=no damage to plant) ([7]; 15.625 g ai/ha): 0
- plant damage rating, Morningglory, Ivy-leaved [7, 16]: 0
- Morningglory, Ivy-leaved damage rating (100=total damage to plant; 0=no damage to plant) ([7]; 250 g ai/ha): 0
- Pigweed, Redroot damage rating (100=total damage to plant; 0=no damage to plant) ([8]; 15.625 g ai/ha): 0
- plant damage rating, Pigweed, Redroot [8, 16]: 0
- Pigweed, Redroot damage rating (100=total damage to plant; 0=no damage to plant) ([8]; 250 g ai/ha): 0
- Barnyardgrass damage rating (100=total damage to plant; 0=no damage to plant) ([9]; 15.625 g ai/ha): 10
- plant damage rating, Barnyardgrass [9, 16]: 50
- Barnyardgrass damage rating (100=total damage to plant; 0=no damage to plant) ([9]; 250 g ai/ha): 90
- Velvetleaf damage rating (100=total damage to plant; 0=no damage to plant) ([10]; 15.625 g ai/ha): 0
- plant damage rating, Velvetleaf [10, 16]: 0
- Velvetleaf damage rating (100=total damage to plant; 0=no damage to plant) ([10]; 250 g ai/ha): 0
- Foxtail, Giant damage rating (100=total damage to plant; 0=no damage to plant) ([11]; 15.625 g ai/ha): 0
- plant damage rating, Foxtail, Giant [11, 16]: 70
- Foxtail, Giant damage rating (100=total damage to plant; 0=no damage to plant) ([11]; 250 g ai/ha): 90
- Corn damage rating (100=total damage to plant; 0=no damage to plant) (corn (Zea mays) [12]; 15.625 g ai/ha): 0
- plant damage rating, Corn (corn (Zea mays) [12]; [16]): 0
- Corn damage rating (100=total damage to plant; 0=no damage to plant) (corn (Zea mays) [12]; 250 g ai/ha): 0
